In brackets after ≈: the same amount, converted by molar mass.
Experiments:
[1] = Inhibition of Escherichia coli primase by scintillation proximity assay
Escherichia coli = assay: Antibacterial activity against Escherichia coli; assay type: functional

| SMILES | IC50 [1] | MIC (Escherichia coli) |
| --- | --- | --- |
| COc1ccc(-c2cn3c4ccccc4n(CCN4CCCCC4)c3n2)cc1 | 162 µM | > 64 µg/mL |
| CSc1nc(NCCN(C)C)c2sc3nc(C(C)C)c4c(c3c2n1)CCC4 | 26.6 µM | 8 µg/mL (≈ 19.9 µM) |
| CSc1nc(NCCN2CCOCC2)c2sc3nc(C(C)C)c4c(c3c2n1)CCC4 | > 200 µM | > 64 µg/mL |
| CSc1nc(NCCN(C)C)c2sc3nc(CC(C)C)c4c(c3c2n1)CC(C)(C)OC4 | 79.2 µM | > 64 µg/mL |
| CN(C)CCNc1cc(-c2ccncc2)nc(-c2ccccn2)n1 | 44.7 µM | > 64 µg/mL |
| CCN1CCN(c2nc(-c3ccncc3)nc3ccccc23)CC1 | 27.3 µM | > 64 µg/mL |
| CCN(CC)CCNc1nc(SC)nc2c1sc1nc(C)c3c(c12)CC(C)(C)OC3 | 16.9 µM | 32 µg/mL (≈ 71.8 µM) |
| c1ccc2c(c1)oc1c(N3CCN(C4CCCC4)CC3)ncnc12 | 122 µM | > 64 µg/mL |
| CN1CCN(c2nc(-c3ccccc3)nc3c2oc2ccccc23)CC1 | 42.5 µM | > 64 µg/mL |
| Cc1ccc(-c2cn3c4ccccc4n(CCN4CCCCC4)c3n2)cc1 | 99.5 µM | 64 µg/mL (≈ 179 µM) |
| c1ccc(-c2cn3c4ccccc4n(CCN4CCCCC4)c3n2)cc1 | 18.4 µM | 64 µg/mL (≈ 186 µM) |
| CN1CCN(c2ncnc3c2oc2ccccc23)CC1 | 85.1 µM | 64 µg/mL (≈ 239 µM) |
| CC(C)c1nc2sc3c(NCCN(C)C)ncnc3c2c2c1CCCC2 | 61 µM | 16 µg/mL (≈ 43.3 µM) |
| CSc1nc(NCCN(C)C)c2sc3nc(CC(C)C)c4c(c3c2n1)CCC4 | 22 µM | 4 µg/mL (≈ 9.62 µM) |
| CN1CCN(c2nc(-c3ccccc3O)nc3ccccc23)CC1 | 7.2 µM | > 64 µg/mL |
| CN(C)CCOc1nc(-c2ccccc2)nc2c1oc1ccccc12 | 3.4 µM | 4 µg/mL (≈ 12 µM) |
| CCN(CC)CCNc1nc(SC)nc2c1sc1nc(C(C)C)c3c(c12)CCC3 | 36 µM | > 64 µg/mL |
| CCc1nc(N2CCN(CC)CC2)c2oc3ccccc3c2n1 | 170 µM | > 64 µg/mL |
| CCN(CC)CCNc1nc(SC)nc2c1sc1nc(N3CCOCC3)c3c(c12)CC(C)(C)OC3 | 45 µM | 64 µg/mL (≈ 124 µM) |
| CCCCc1nc2sc3c(NCCN(C)C)nc(SC)nc3c2c2c1CCC2 | 103 µM | 8 µg/mL (≈ 19.2 µM) |
| CN1CCN(c2nc(Nc3cccc(O)c3)nc3ccccc23)CC1 | 50.5 µM | > 64 µg/mL |
| CCN1CCN(c2nc(SC)nc3c2sc2nc(C(C)C)c4c(c23)CCC4)CC1 | > 200 µM | > 64 µg/mL |
| c1csc(-c2cn3c4ccccc4n(CCN4CCCCC4)c3n2)c1 | 32.3 µM | 64 µg/mL (≈ 183 µM) |
| OCCN1CCN(c2ncnc3c2oc2ccccc23)CC1 | 138 µM | 64 µg/mL (≈ 215 µM) |
| CN1CCN(c2nc(-c3ccc(Cl)cc3)nc3c2oc2ccccc23)CC1 | > 200 µM | > 64 µg/mL |
